Reference: US20040022850A1, “Modified release formulation” (priority 2000, published 2004)
In brackets after ≈: the same amount, converted by molar mass.

Test: Solubility of the model drugs
Format: physicochemical

SMILES	solubility [µg/mL]
CCCCOC(=O)c1ccc(O)cc1 [butyl paraben]	200 (≈ 1030 µM)
CC(C)n1c(/C=C/C(O)CC(O)CC(=O)O)c(-c2ccc(F)cc2)c2ccccc21 (centres unmarked) [fluvastatin]	> 50000
